Laboratory results published in the supplement of paper PMC10307832.

Experiments:
Test in all cases: relative viability (nuclei count vs DMSO), 5 days (fraction); higher = more cells survive
CX-5461 + Olaparib = compound: Cc1cnc(CNC(=O)c2c(=O)c3ccc(N4CCCN(C)CC4)nc3n3c2sc2ccccc23)cn1 [CX-5461] + O=C(c1cc(Cc2n[nH]c(=O)c3ccccc23)ccc1F)N1CCN(C(=O)C2CC2)CC1 [Olaparib] (partner 8 µM)
Procedure, shortened: (§1)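 Relative viability is defined as nuclei in treated wells over nuclei in vehicle wells. Duplicate plates were run and medians reported. Lung cancer cell lines in 1536-well plates were dosed by pin tool one day after seeding, with one drug or with a fixed anchor-drug dose plus five library-drug doses (not always all listed) in √10 steps, and nuclei were counted after 5 days.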

CX-5461 + Pictilisib = compound: Cc1cnc(CNC(=O)c2c(=O)c3ccc(N4CCCN(C)CC4)nc3n3c2sc2ccccc23)cn1 [CX-5461] + CS(=O)(=O)N1CCN(Cc2cc3nc(-c4cccc5[nH]ncc45)nc(N4CCOCC4)c3s2)CC1 [Pictilisib] (partner 1 µM)
Procedure, shortened: as §1

IMD-0354 + Dasatinib = compound: O=C(Nc1cc(C(F)(F)F)cc(C(F)(F)F)c1)c1cc(Cl)ccc1O [IMD-0354] + Cc1nc(Nc2ncc(C(=O)Nc3c(C)cccc3Cl)s2)cc(N2CCN(CCO)CC2)n1 [Dasatinib] (partner 0.075 µM)
Procedure, shortened: as §1

CX-5461 + Bortezomib = compound: Cc1cnc(CNC(=O)c2c(=O)c3ccc(N4CCCN(C)CC4)nc3n3c2sc2ccccc23)cn1 [CX-5461] + CC(C)C[C@H](NC(=O)[C@H](Cc1ccccc1)NC(=O)c1cnccn1)B(O)O [Bortezomib] (partner 0.002 µM)
Procedure, shortened: as §1

| Cell Line | relative viability (CX-5461 + Olaparib; first compound 0.01 µM) | relative viability (CX-5461 + Olaparib; first compound 0.03162 µM) | relative viability (CX-5461 + Olaparib; first compound 0.1 µM) | relative viability (CX-5461 + Olaparib; first compound 0.3162 µM) | relative viability (CX-5461 + Olaparib; first compound 1 µM) | relative viability (CX-5461 + Pictilisib; first compound 0.01 µM) | relative viability (CX-5461 + Pictilisib; first compound 0.03162 µM) | relative viability (CX-5461 + Pictilisib; first compound 0.1 µM) | relative viability (CX-5461 + Pictilisib; first compound 0.3162 µM) | relative viability (CX-5461 + Pictilisib; first compound 1 µM) | relative viability (IMD-0354 + Dasatinib; first compound 0.04 µM) | relative viability (IMD-0354 + Dasatinib; first compound 0.1265 µM) | relative viability (IMD-0354 + Dasatinib; first compound 0.4 µM) | relative viability (IMD-0354 + Dasatinib; first compound 1.265 µM) | relative viability (IMD-0354 + Dasatinib; first compound 4 µM) | relative viability (CX-5461 + Bortezomib; first compound 0.01 µM) | relative viability (CX-5461 + Bortezomib; first compound 0.03162 µM) | relative viability (CX-5461 + Bortezomib; first compound 0.1 µM) | relative viability (CX-5461 + Bortezomib; first compound 0.3162 µM) | relative viability (CX-5461 + Bortezomib; first compound 1 µM) |
| --- | --- | --- | --- | --- | --- | --- | --- | --- | --- | --- | --- | --- | --- | --- | --- | --- | --- | --- | --- | --- |
| NCI-H1355 | 0.758 | 0.811 | 0.689 | 0.736 | 0.714 | 0.469 | 0.433 | 0.493 | 0.163 | 0.407 | 0.761 | 0.718 | 0.574 | 0.198 | 0.294 | 1.2 | 1.19 | 1.12 | 1.28 | 0.877 |
| NCI-H1437 | 0.654 | 0.643 | 0.528 | 0.648 | 0.567 | 0.381 | 0.471 |  | 0.408 | 0.382 | 0.528 | 0.381 | 0.255 | 0.0882 | 0.144 | 0.45 | 0.423 |  | 0.369 | 0.316 |
| NCI-H1650 | 0.718 | 0.819 | 0.642 | 0.756 | 0.257 | 0.577 | 0.593 |  | 0.206 | 0.226 | 0.368 | 0.33 | 0.183 | 0.142 | 0.137 | 0.202 | 0.191 |  | 0.19 | 0.175 |
| NCI-H1651 | 0.188 | 0.175 | 0.191 | 0.163 | 0.159 |  | 0.414 |  | 0.489 | 0.105 | 0.515 | 0.363 | 0.26 | 0.0542 | 0.0748 | 0.899 | 0.896 | 0.816 | 0.969 | 0.404 |
| NCI-H1666 | 0.708 | 0.731 | 0.748 | 0.696 | 0.676 | 0.375 | 0.533 |  | 0.337 | 0.349 | 0.94 | 0.912 | 0.651 | 0.345 | 0.351 | 0.839 | 0.741 |  | 0.758 | 0.505 |
| NCI-H1734 | 0.662 | 0.67 | 0.633 | 0.553 | 0.511 | 0.516 | 0.519 | 0.503 | 0.317 | 0.341 | 0.516 | 0.4 | 0.343 | 0.195 | 0.134 | 0.948 | 1.18 | 0.838 | 0.751 | 0.45 |
| NCI-H1755 | 0.85 | 0.929 | 0.819 | 0.806 | 0.818 | 0.463 | 0.484 | 0.446 | 0.301 | 0.383 | 0.438 | 0.461 | 0.395 | 0.243 | 0.34 | 1.05 | 1.03 | 0.972 | 0.99 | 0.877 |
| NCI-H1792 | 0.424 | 0.471 | 0.477 | 0.371 | 0.39 | 0.294 | 0.296 | 0.277 | 0.276 | 0.281 | 0.906 | 0.69 | 0.545 | 0.406 | 0.416 | 0.935 | 1.16 | 0.966 | 0.965 | 0.848 |
| NCI-H1915 | 0.259 | 0.255 | 0.242 | 0.262 | 0.252 | 0.966 | 1.18 | 1.1 | 0.326 | 0.997 | 0.31 | 0.322 | 0.129 | 0.109 | 0.14 | 1.03 | 1.06 | 0.989 | 1.02 | 0.891 |
| NCI-H1975 | 0.898 | 0.822 | 0.68 | 0.853 | 0.558 | 0.293 | 0.274 | 0.274 | 0.315 | 0.209 | 0.421 | 0.398 | 0.233 | 0.128 | 0.135 | 0.361 | 0.357 | 0.357 | 0.358 | 0.154 |
| NCI-H1993 | 1.19 | 1.1 | 1.1 | 0.976 | 1.01 | 0.778 | 0.83 | 0.891 | 0.84 | 0.819 | 0.562 | 0.652 | 0.448 | 0.543 | 0.51 | 1.09 | 1.18 | 1.14 | 0.944 | 0.937 |
| NCI-H2009 | 0.631 | 0.621 | 0.616 | 0.672 | 0.565 | 0.87 | 0.862 | 0.635 | 0.519 | 0.815 | 0.367 | 0.292 | 0.263 | 0.109 | 0.0808 | 1.05 | 1.08 | 0.644 | 0.867 | 0.492 |
| NCI-H2023 | 0.445 | 0.354 |  | 0.248 | 0.0686 | 0.284 | 0.257 |  | 0.0857 | 0.102 | 0.713 | 0.497 | 0.361 | 0.108 | 0.113 | 1.04 | 0.825 |  | 0.52 | 0.0872 |
| NCI-H2085 | 0.772 | 0.783 | 0.845 | 0.787 | 0.736 | 0.551 | 0.408 | 0.435 | 0.514 | 0.374 | 0.219 | 0.241 | 0.298 | 0.195 | 0.201 | 1.04 | 0.999 | 0.871 | 1.01 | 0.677 |
| NCI-H2087 | 0.683 | 0.68 | 0.583 | 0.602 | 0.471 | 0.887 | 1.02 | 1.07 | 0.282 | 0.716 | 0.828 | 0.896 | 0.312 | 0.122 | 0.151 | 0.812 | 0.884 | 0.781 | 1.07 | 0.525 |
| NCI-H2126 | 0.956 | 0.974 | 0.924 | 0.968 | 0.863 | 0.486 | 0.521 | 0.478 | 0.518 | 0.487 | 0.587 | 0.666 | 0.387 | 0.216 | 0.237 | 1.12 | 1.15 | 1.15 | 1.09 | 1.06 |
| NCI-H2228 | 0.75 | 0.773 | 0.518 | 0.55 | 0.188 | 0.646 | 0.425 | 0.255 | 0.432 | 0.153 | 0.538 | 0.487 | 0.373 | 0.184 | 0.202 | 0.934 | 0.797 | 0.455 | 0.819 | 0.126 |
| NCI-H2347 | 0.57 | 0.648 | 0.606 | 0.477 | 0.517 | 0.769 | 0.697 | 0.49 | 0.562 | 0.665 | 0.321 | 0.308 | 0.278 | 0.162 | 0.229 | 1.06 | 1.21 | 0.836 | 0.854 | 0.941 |
| NCI-H2405 | 0.9 | 0.891 | 0.866 | 0.792 | 0.639 | 0.427 | 0.468 | 0.419 | 0.259 | 0.413 | 0.213 | 0.242 | 0.217 | 0.249 | 0.116 | 0.998 | 0.976 | 0.987 | 1.13 | 0.953 |
| NCI-H3122 | 0.695 | 0.653 | 0.615 | 0.667 | 0.617 | 0.558 | 0.657 | 0.617 | 0.533 | 0.608 | 0.843 | 0.824 | 0.321 | 0.286 | 0.0969 | 0.95 | 1.06 | 1.07 | 1.02 | 0.914 |
| PC-3 [JPC-3] | 1.15 |  | 1.08 | 1.15 | 0.898 | 0.82 | 0.857 | 0.829 | 0.697 | 0.75 | 1.12 | 0.878 | 0.761 | 0.399 | 0.275 | 0.745 | 0.83 | 0.838 | 0.884 | 0.825 |
| PC-14 | 0.241 | 0.252 | 0.125 | 0.213 | 0.0738 | 0.788 | 1.05 | 0.972 | 0.583 | 0.636 | 0.334 | 0.186 | 0.406 | 0.0692 | 0.102 | 1.02 | 0.918 | 1.03 | 0.837 | 0.944 |
| RERF-LC-KJ | 0.785 | 0.827 | 0.619 | 0.848 | 0.415 | 0.466 | 0.601 | 0.565 | 0.538 | 0.5 | 1.08 | 0.727 | 0.614 | 0.208 | 0.251 | 1.11 | 1.1 | 1.15 | 1.09 | 1.01 |
| SK-LU-1 | 0.423 | 0.467 | 0.442 | 0.473 | 0.335 | 0.659 | 0.616 | 0.602 | 0.573 | 0.417 | 0.173 | 0.188 | 0.154 | 0.139 | 0.134 |  | 1.15 | 1.05 | 0.518 | 0.761 |
| SW 1573 | 0.395 | 0.468 | 0.29 | 0.438 | 0.141 | 0.56 | 0.471 | 0.461 | 0.59 | 0.452 | 0.763 | 0.449 | 0.242 | 0.128 | 0.0881 | 0.952 | 1.22 | 1.03 | 0.924 | 0.763 |
| UMC-11 | 0.323 | 0.369 | 0.321 | 0.395 | 0.267 | 0.869 | 0.835 | 0.76 | 0.149 | 0.259 | 0.541 | 0.416 | 0.246 | 0.171 | 0.206 | 1.01 | 0.707 | 0.514 | 0.797 | 0.198 |
